Test [1] addresses T1, native human Bradykinin B1 receptor (Homo sapiens, UniProt P46663).
T1 construct: which express native human Bradykinin B1 receptor after induction with human IL-10; Coriell Institute; host or cells: IMR-90 human foetal lung fibroblasts, cytokine-induced
T1 sequence (P46663 1-353): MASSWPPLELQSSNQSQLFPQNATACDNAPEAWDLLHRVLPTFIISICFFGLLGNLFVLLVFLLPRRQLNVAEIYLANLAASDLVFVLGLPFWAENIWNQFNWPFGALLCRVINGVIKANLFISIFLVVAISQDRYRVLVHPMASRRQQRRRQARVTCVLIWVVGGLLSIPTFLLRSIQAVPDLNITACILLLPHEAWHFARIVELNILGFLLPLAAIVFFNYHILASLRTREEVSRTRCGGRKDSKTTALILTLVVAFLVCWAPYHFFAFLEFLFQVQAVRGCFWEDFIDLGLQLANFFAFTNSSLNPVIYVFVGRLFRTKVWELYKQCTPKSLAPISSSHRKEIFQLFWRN
Put plainly: Calcium flux Assay (FLIPR) with human fibroblasts expressing Bradykinin B1 receptor (hB1 IMR-90). It is filed as cell-based. Particulars: IMR-90 human fibroblasts expressing native Bradykinin B1 receptor. As to the method: Calcium flux Assay (FLIPR) with human fibroblasts expressing Bradykinin B1 receptor (hB1 IMR-90)
The Calcium flux Assay was carried out utilising IMR-90 human foetal lung fibroblasts (American Type Culture Collection, Rockville, Md.; and Coriell Institute, Camden, N.J.), which express native human Bradykinin B1 receptor after induction with human […].
The fibroblasts were cultured in complete growth media comprised of Dulbecco's modified Eagle's medium (DMEM; Sigma) containing 10% foetal bovine serum, 4 mM L-glutamine, and 1% nonessential amino acids. The cells were maintained in a humidified atmosphere with 5% CO2 at 37° C. and were sub-cultured at a ratio of 1:3, every other day.
For the assay, IMR-90 fibroblasts were harvested using TrypLE Express (GIBCO/Invitrogen) and seeded into 384-well plates (Corning Cellbinding Surface, Cat. 3683) at a density of 15000 cells/well. The following day, cells were treated with 0.35 ng/mL human […] in 10% FBS/MEM for 3h to up-regulate Bradykinin B1 receptor. Induced cells were loaded with fluorescent calcium indicator by incubation with 2.5 μM Fluo-4/AM (Invitrogen) at 37° C., 5% CO2 for 2 h in the presence of 2.5 mM probenecid in 1% FBS/MEM. Extracellular dye was removed by washing with assay buffer (2.5 mM probenecid and 0.1% BSA in 20 mM HEPES/HBSS without bicarbonate or phenol red, pH 7.5). Compound examples were assayed at 8 concentrations in triplicate. After addition of compound examples to the cell plate and incubation for 30 min at 28° C., the addition of Bradykinin B1 agonist Lys-(Des-Arg)-Bradykinin (Bachem, Brackley) at a final concentration of EC90 was carried out on the FLIPR instrument while continuously monitoring Ca^2+-dependent fluorescence at 538 nm. A peptide antagonist Lys-(Des-Arg-Leu)-Bradykinin (Bachem, Brackley) at 20 µM was used to determine the full inhibition as control. IC50 values were determined by the same way described for the FLIPR assay with recombinant cells.

Test [2] concerns the target T2, human Bradykinin B1 receptor (Homo sapiens, UniProt P46663).
T2 construct: host or cells: CHO-K1
T2 sequence (P46663 1-353): T1 sequence (P46663 1-353)
The test can be described thus: Calcium flux Assay (FLIPR) with recombinant CHO-K1 cells expressing human Bradykinin B1 receptor, in presence (hB1 IC50) or absence (hB1 free IC50) of 0.1% BSA. It is filed as cell-based.

[3] abbreviates: in absence of 0.1% BSA, read-out: hB1 free IC50.
Where [4] appears, read: in presence of 0.1% BSA, read-out: hB1 IC50.

Molecules are shown by their SMILES. Like-named read-outs stand apart in the source and are kept apart here.

In the case of `CCOc1ncc(-c2ccc(NC(=O)C3(c4cccc(Cl)c4)CC3)cc2-c2nnn[nH]2)cc1C` [Example 160, 1-(3-chlorophenyl)-N-[4-(6-ethoxy-5-methylpyridin-3-yl)-3-(1H-tetrazol-5-yl)phenyl] cyclopropane-carboxamide], the half-maximal inhibitory concentration (IC50) stood at 26.7 nM in test [1], 8.13 nM in test [2] (setting [3]) and 47.7 nM in test [2] (setting [4]).
Take `O=C(Nc1ccc(-c2ccc(C(F)(F)F)nc2)c(-c2nnn[nH]2)c1)C1(c2cccc(Cl)c2)CC1` [Example 135, 1-(3-chlorophenyl)-N-{3-(1H-tetrazol-5-yl)-4-[6-(trifluoromethyl)pyridin-3-yl]phenyl} cyclopropane-carboxamide]: the IC50 in test [1] is 91.8 nM; in test [2] (setting [3]) it was 58.7 nM; in test [2] (setting [4]) it was 516 nM.
The corresponding values for `CCOc1ccc(-c2ccc(NC(=O)C3(c4cc(F)ccc4F)CC3)cc2-c2nnn[nH]2)cn1` [Example 83, 1-(2,5-difluorophenyl)-N-[4-(6-ethoxypyridin-3-yl)-3-(1H-tetrazol-5-yl)phenyl] cyclopropane-carboxamide] are 33 nM, 60.5 nM and 37.5 nM.
On to `CCOc1ccc(-c2ccc(NC(=O)C3(c4cccc(Cl)c4F)CC3)cc2-c2nnn[nH]2)cn1` [Example 73, 1-(3-chloro-2-fluorophenyl)-N-[4-(6-ethoxypyridin-3-yl)-3-(1H-tetrazol-5-yl)phenyl] cyclopropane-carboxamide], for which the IC50 in test [1] was found to be 7.98 nM; in test [2] (setting [3]) it was 13.9 nM; in test [2] (setting [4]) it was 16.2 nM.
The corresponding values for `Cn1ncc2ccc(-c3ccc(NC(=O)C4(c5cccc(Cl)c5F)CC4)cc3-c3nnn[nH]3)cc21` [Example 214, 1-(3-chloro-2-fluorophenyl)-N-[4-(1-methyl-1H-indazol-6-yl)-3-(1H-tetrazol-5-yl)phenyl] cyclopropane carboxamide] are 26.9 nM, 7.93 nM and 47.2 nM.
On the same counts, the results for `O=C(Nc1ccc(-c2ccc(C(F)(F)F)cc2)c(-c2nnn[nH]2)c1)C1(c2cccc(Cl)c2)CC1` [Example 128, 1-(3-chlorophenyl)-N-[2-(1H-tetrazol-5-yl)-4′-(trifluoromethyl)biphenyl-4-yl]cyclopropane carboxamide] are 63.3 nM, 2.68 nM and 137 nM.
The corresponding values for `CCOc1ccc(-c2ccc(NC(=O)C3(C(F)(F)F)CC3)cc2-c2nnn[nH]2)cn1` [Example 91, N-[4-(6-ethoxypyridin-3-yl)-3-(1H-tetrazol-5-yl)phenyl]-1-(trifluoromethyl) cyclopropane-carboxamide] are 161 nM, 452 nM and 174 nM.
As to `O=C(Nc1ccc(-c2ccc(C(F)(F)F)nc2)c(-c2nnn[nH]2)c1)C1(c2ccc(F)c(Cl)c2)CC1` [Example 139, 1-(3-chloro-4-fluorophenyl)-N-{3-(1H-tetrazol-5-yl)-4-[6-(trifluoromethyl)pyridin-3-yl]phenyl} cyclopropane-carboxamide], the results for the 50% inhibitory concentration (IC50) in test [1] and in test [2] (setting [3]) were 91 nM and 22.6 nM, respectively.
On to `O=C(Nc1ccc(-c2ccnc(C(F)(F)F)c2)c(-c2nnn[nH]2)c1)C1(c2ccc(Cl)cc2F)CC1` [Example 175, 1-(4-chloro-2-fluorophenyl)-N-{3-(1H-tetrazol-5-yl)-4-[2-(trifluoromethyl)pyridin-4-yl]phenyl} cyclopropane-carboxamide], for which the results for the IC50 in test [1] and in test [2] (setting [3]) were 687 nM and 216 nM, respectively.
In the case of `COc1cncc(-c2ccc(NC(=O)C3(c4cccc(Cl)c4)CC3)cc2-c2nnn[nH]2)c1` [Example 153, 1-(3-chlorophenyl)-N-[4-(5-methoxypyridin-3-yl)-3-(1H-tetrazol-5-yl)phenyl] cyclopropane-carboxamide], the 50% inhibitory concentration (IC50) was 18.6 nM in test [1], 3.64 nM in test [2] (setting [3]) and 26.2 nM in test [2] (setting [4]).
On the same counts, the results for `CN(C)c1ccc(-c2ccc(NC(=O)C3(c4cccc(Cl)c4F)CC3)cc2-c2nnn[nH]2)cn1` [Example 168, 1-(3-chloro-2-fluorophenyl)-N-{4-[6-(dimethylamino)pyridin-3-yl]-3-(1H-tetrazol-5-yl)phenyl} cyclopropane-carboxamide] are 27.7 nM, 58.6 nM and 88.1 nM.
On to `CCOc1ccc(-c2ccc(NC(=O)C3(c4ccc(F)cc4F)CC3)cc2-c2nnn[nH]2)cc1OC` [Example 122, 1-(2,4-difluorophenyl)-N-[4′-ethoxy-3′-methoxy-2-(1H-tetrazol-5-yl)biphenyl-4-yl]cyclopropane carboxamide], for which the 50% inhibitory concentration (IC50) in test [1] worked out at 28.7 nM; in test [2] (setting [4]), 56.5 nM.
On to `Cc1cc(-c2ccc(NC(=O)C3(c4cccc(Cl)c4F)CC3)cc2-c2nnn[nH]2)ccn1` [Example 211, 1-(3-chloro-2-fluorophenyl)-N-[4-(2-methylpyridin-4-yl)-3-(1H-tetrazol-5-yl)phenyl] cyclopropane-carboxamide], for which the IC50 in test [1] was 19.1 nM; in test [2] (setting [3]) it was 10.5 nM; in test [2] (setting [4]) it was 23.1 nM.
On the same counts, the results for `CC(C)Oc1ccc(-c2ccc(NC(=O)C3(c4ccc(C(F)(F)F)cc4)CC3)cc2-c2nnn[nH]2)cn1` [Example 149, N-[4-(6-isopropoxy-pyridin-3-yl)-3-(1H-tetrazol-5-yl)phenyl]-1-[4-(trifluoromethyl)phenyl] cyclopropane-carboxamide] are 11.8 nM, 6.35 nM and 14.4 nM.
As for `CCOc1ccc(-c2c(F)cc(NC(=O)C3(c4ccc(C(F)(F)F)cc4F)CC3)cc2-c2nnn[nH]2)cn1` [Example 240, N-[4-(6-ethoxypyridin-3-yl)-3-fluoro-5-(1H-tetrazol-5-yl)phenyl]-1-[2-fluoro-4-(trifluoromethyl)phenyl] cyclopropane-carboxamide], the IC50 in test [1] stood at 2.83 nM; in test [2] (setting [3]), 2.35 nM.
`COc1ccc(-c2ccc(NC(=O)C3(c4cc(Cl)ccc4F)CC3)cc2-c2nnn[nH]2)cc1OC` [Example 17, 1-(5-chloro-2-fluorophenyl)-N-[3′,4′-dimethoxy-2-(1H-tetrazol-5-yl)biphenyl-4-yl]cyclopropane carboxamide]: the 50% inhibitory concentration (IC50) in test [1] was determined as 263 nM; in test [2] (setting [4]) it was 68.5 nM.
As for `O=C(Nc1ccc(-c2cnc(C(F)(F)F)nc2)c(-c2nnn[nH]2)c1)C1(c2cccc(Cl)c2)CC1` [Example 196, 1-(3-chlorophenyl)-N-{3-(1H-tetrazol-5-yl)-4-[2-(trifluoromethyl)pyrimidin-5-yl]phenyl} cyclopropane-carboxamide], the half-inhibitory concentration (IC50) in test [1] is 1450 nM; in test [2] (setting [3]), 759 nM; in test [2] (setting [4]), 1370 nM.
Regarding `O=C(Nc1ccc(-c2ccc(C(F)(F)F)nc2)c(-c2nnn[nH]2)c1)C1(c2ccc(C(F)(F)F)cc2F)CC1` [Example 191, 1-[2-fluoro-4-(trifluoromethyl)phenyl]-N-{3-(1H-tetrazol-5-yl)-4-[6-(trifluoromethyl)pyridin-3-yl]phenyl} cyclopropane-carboxamide], the IC50 in test [1] was 20.5 nM; in test [2] (setting [3]), 11.8 nM.
With `CCOc1ccc(-c2ccc(NC(=O)C3(c4cccc(C)c4)CC3)cc2-c2nnn[nH]2)cn1` [Example 94, N-[4-(6-ethoxypyridin-3-yl)-3-(1H-tetrazol-5-yl)phenyl]-1-(3-methylphenyl) cyclopropane-carboxamide], the IC50 in test [1] amounted to 25.1 nM; in test [2] (setting [4]) it was 23.8 nM.
Turning to `O=C(Nc1ccc(-c2ccnc(C(F)(F)F)c2)c(-c2nnn[nH]2)c1)C1(c2ccc(OC(F)(F)F)cc2F)CC1` [Example 295, 1-[2-fluoro-4-(trifluoromethoxy)phenyl]-N-{3-(1H-tetrazol-5-yl)-4-[2-(trifluoromethyl)pyridin-4-yl]phenyl}cyclopro-panecarboxa-mide], the IC50 in test [1] amounted to 33.8 nM; in test [2] (setting [3]), 24.1 nM.
